From patent publication EP0712403B1, “MATRIX METALLOPROTEASE INHIBITORS” (SYNTEX (U.S.A.) INC., priority 1993, dated 1995) come the findings set out here.

The target of one assay is T1, Matr (Homo sapiens, UniProt P09237).
T1 sequence (P09237 95-267): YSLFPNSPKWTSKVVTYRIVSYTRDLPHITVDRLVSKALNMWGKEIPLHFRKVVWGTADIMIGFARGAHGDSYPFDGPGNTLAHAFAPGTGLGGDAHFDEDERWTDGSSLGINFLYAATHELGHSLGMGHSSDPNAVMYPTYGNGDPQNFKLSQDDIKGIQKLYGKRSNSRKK
Nature of the assay: In vitro metalloprotease inhibition assay (thiopeptide/DACM fluorescence). Type of assay: biochemical. The settings on record: read-out: Ki or IC50 Matr.

A further assay has as its system cartilage explants. The assay is described as follows: Release of 35S-labelled glycosaminoglycans from cartilage explants. The format is cell-based. The settings on record: Bos taurus; inhibition of rhIL-1-alpha induced release of 35S-labelled GAG's, bovine knee joint cartilage explants. As to the method:
This assay determines if the compounds of formula (I) inhibit the release of ^35S-labelled glycosaminoglycans (GAG's) from cartilage explants.
Small cartilage explants (3 mm diameter) were prepared from freshly sacrificed bovine knee joints and labeled with ^35SO4. ^35S-labelled glycosaminoglycans (GAG's) are released into the culture medium in response to the addition of rhIL-1-alpha, which induces the expression of chondrocyte matrix metalloproteases (MMP's), including stromelysin and collagenase. The percent inhibition of labeled GAG's was corrected for spontaneous release in the absence of rhlL-1-alpha. Results for each group represent the mean ± the S.E.M. for five explants.

The target of a further assay is HNG (Homo sapiens, UniProt P14780). The assay is described as follows: In vitro metalloprotease inhibition assay (thiopeptide/DACM fluorescence). The settings on record: read-out: Ki or IC50 HNG. Type of assay: biochemical. As to the method: (§1) Compounds of formula (I) were dissolved in DMSO and added to a cuvette containing 0.2 µg Type I or 0.03 µg Type IV collagenase in 1 ml TC buffer (20mM Tris, 5mM CaCl2, pH 7.5) (2% DMSO final concentration). The concentrations of the compounds of formula (I) were chosen such that there was at least one data point for every 20% change in activity. Enzyme and compounds were permitted to pre-incubate 3 min at 37°C. To initiate the reaction, N-(7-dimethylamino-4-methyl)coumarinyl ("DACM") (Sigma) and thiopeptide (Ac-Pro-Leu-Gly-S-"Leu"-Leu-Gly-OEt, Bachem Bioscience Inc.) were added to 20 uM each. […] Each data point is the average of duplicate experiments. At least six data points, expressed as change in fluorescence per minute versus compound concentration were analyzed using the IC50 fit in the program, Enzfitter.

A further assay relates to fetal rat long bones. The assay is described as follows: Fetal rat long bone model, bovine PTH induced bone resorption (45Ca release). Type of assay: cell-based. The settings on record: 144 h.
In the next assay the target is HNC (Homo sapiens, UniProt P22894). The assay is described as follows: In vitro metalloprotease inhibition assay (thiopeptide/DACM fluorescence). The format is biochemical.
The target in another assay is SLN (Homo sapiens, UniProt P08254). Described as above. The format is biochemical.
A further assay concerns the target T2, HFC (Homo sapiens, UniProt P03956).
T2 construct: endogenous in cells; host or cells: GM0010A fibroblasts stimulated with PMA; enzyme purified from serum-free culture medium
T2 sequence (P03956 100-469): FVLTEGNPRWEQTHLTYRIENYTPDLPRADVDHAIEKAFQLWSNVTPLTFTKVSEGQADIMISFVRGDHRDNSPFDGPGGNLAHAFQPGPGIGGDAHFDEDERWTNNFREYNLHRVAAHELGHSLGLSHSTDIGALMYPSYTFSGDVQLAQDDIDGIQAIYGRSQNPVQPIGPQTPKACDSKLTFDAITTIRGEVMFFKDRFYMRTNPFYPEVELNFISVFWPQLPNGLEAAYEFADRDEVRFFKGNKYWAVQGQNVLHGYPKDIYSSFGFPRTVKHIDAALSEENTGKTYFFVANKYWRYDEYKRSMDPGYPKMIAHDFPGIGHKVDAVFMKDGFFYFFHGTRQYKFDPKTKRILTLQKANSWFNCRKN
Nature of the assay: In vitro collagenase inhibition assay (thiopeptide/DACM fluorescence). Type of assay: biochemical. As to the method: as §1

Some results are limits rather than exact numbers.

HNG, sequence (P14780 107-707 limits assumed): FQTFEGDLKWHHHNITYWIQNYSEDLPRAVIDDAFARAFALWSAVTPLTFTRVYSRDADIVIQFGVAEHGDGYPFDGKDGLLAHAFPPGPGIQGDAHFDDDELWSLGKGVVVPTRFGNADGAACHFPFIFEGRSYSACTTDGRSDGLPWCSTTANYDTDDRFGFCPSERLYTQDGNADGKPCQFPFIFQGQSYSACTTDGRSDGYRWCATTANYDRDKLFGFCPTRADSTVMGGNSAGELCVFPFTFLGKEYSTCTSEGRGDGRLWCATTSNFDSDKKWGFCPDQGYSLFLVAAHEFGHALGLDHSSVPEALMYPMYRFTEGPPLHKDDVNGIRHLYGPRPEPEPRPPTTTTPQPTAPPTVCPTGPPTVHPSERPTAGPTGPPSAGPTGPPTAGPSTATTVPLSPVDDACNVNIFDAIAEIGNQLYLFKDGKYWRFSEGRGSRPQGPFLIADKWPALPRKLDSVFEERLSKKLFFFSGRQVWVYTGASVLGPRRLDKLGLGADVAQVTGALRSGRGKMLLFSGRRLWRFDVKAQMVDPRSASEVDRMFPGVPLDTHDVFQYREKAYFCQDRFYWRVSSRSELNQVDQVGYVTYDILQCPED
HNC, sequence (P22894 101-467): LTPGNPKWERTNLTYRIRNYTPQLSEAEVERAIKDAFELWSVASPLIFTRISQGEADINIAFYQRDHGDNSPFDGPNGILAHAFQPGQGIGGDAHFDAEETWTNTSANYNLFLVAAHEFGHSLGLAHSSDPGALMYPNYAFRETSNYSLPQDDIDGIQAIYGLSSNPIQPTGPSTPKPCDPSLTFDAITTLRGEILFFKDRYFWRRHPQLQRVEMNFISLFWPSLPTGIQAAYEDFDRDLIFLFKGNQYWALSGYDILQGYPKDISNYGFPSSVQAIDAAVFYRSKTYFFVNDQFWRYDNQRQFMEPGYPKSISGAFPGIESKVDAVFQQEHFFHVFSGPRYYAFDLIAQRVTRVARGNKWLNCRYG
SLN, sequence (P08254 100-477): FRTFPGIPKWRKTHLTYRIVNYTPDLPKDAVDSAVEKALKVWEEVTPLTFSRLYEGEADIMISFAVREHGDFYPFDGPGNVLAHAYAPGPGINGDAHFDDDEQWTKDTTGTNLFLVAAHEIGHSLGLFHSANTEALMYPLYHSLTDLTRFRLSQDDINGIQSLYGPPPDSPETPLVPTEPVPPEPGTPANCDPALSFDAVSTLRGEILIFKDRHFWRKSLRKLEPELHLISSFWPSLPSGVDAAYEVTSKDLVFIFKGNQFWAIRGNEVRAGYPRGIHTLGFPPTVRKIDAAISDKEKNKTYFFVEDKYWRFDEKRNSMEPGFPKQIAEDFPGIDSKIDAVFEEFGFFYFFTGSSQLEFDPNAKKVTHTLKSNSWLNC
From the text for fetal rat long bones: An in vitro fetal rat long bone model was used to study the anti-bone resorptive effect of the compounds of formula (I). Bovine PTH was used to induce bone resorption in vitro. The bone resorptive effects were expressed by the amounts of ^45Ca released from the ^45Ca pre-labelled fetal rat long bones into the culture medium. The inhibitory effect of the compounds of formula (I) against bovine PTH induced bone resorption was expressed as mean percent inhibition ± sem.
^45Ca-prelabelled fetal rat long bones (from forearms) were dissected and cultured in Linbro dishes at 37°C overnight BGJb medium, supplemented with 1mg/ml BSA. There were five pairs of bones in each group. The compounds of formula (I) were dissolved in ethanol first, then diluted to various concentrations and added simultaneously with Bovine PTH (1-34) at 1x10^8M on Day 1. […] The assay was terminated on Day 6 with one media change on Day 3.
At the end of each medium change, the ^45Ca present in the culture medium was counted. The remaining bones were digested with 0.1N HCl and the ^45Ca presented in the bone digest was also counted. The results are expressed as % of the total ^45Ca released from each pair of bones. Bovine PTH at 1x10^-8M induces bone resorption to the maximum level which is set as 100% and this concentration was used as standard. […]

`CC(C)CC(CC(=O)NO)C(=O)N[C@H]1Cc2cn(c3ccccc23)CCCCCCCNC1=O` (stereo partly drawn) [Compound 2, (11S)-N-hydroxy-5-methyl-3-(10-oxo-1,9-diazatricyclo-[11.6.1.0^14,19]eicosa-13(20),14(19),15,17-tetraen-11-ylcarbamoyl)hexanamide]: the IC50 was found to be 3 nM on Matr, 40000 nM in the assay with cartilage explants and 0.2 nM on HNG.
On to `CC(C)CC(CP(=O)(O)CSc1ccc2ccccc2n1)C(=O)N[C@H]1Cc2cn(c3ccccc23)CCCCCCNC1=O` (stereo partly drawn) [Compound 4, (10S)-[4-methyl-2-(9-oxo-1,8-diazatricyclo[10.6.1.0^13,18]nonadeca-12(19),13(18),14,16-tetraen-10-ylcarbamoyl)pentyl] (quinolin-2-ylthiomethyl)phosphinic acid], for which the half-maximal inhibitory concentration (IC50) in the assay on fetal rat long bones is 5000 nM; at HNC, 4 nM; at SLN, more than 800 nM; in the assay on cartilage explants it was 50000 nM; against HFC it was 5 nM; at HNG, 14 nM.
